Experimental findings from patent US4063022A, “Antisecretory 2-imidazolidinones” (Morton-Norwich Products, Inc., priority 1976, dated 1977) are described below.

The assay concerns gastric acid secretion. Put plainly: modified standard pylorus-ligated secretory testing procedure in the rat. Conditions: 300 mg/kg p.o. 1 hr prior to pylorus ligation, 4 hrs after ligation; for % of Control Vol. of Gastric Secretion: control 0.5% Methocel; for % of Control Gastric Acid Output: titration to pH 7, control 0.5% Methocel. It is filed as in vivo, Sprague-Dawley rats. The protocol:
Such effect is evidenced using a modified standard pyloruslighted secretory testing procedure in the rat. Sprague-Dawley rats, weighing […] and previously fasted for 24 hrs, were used. All compounds were given perorally as suspensions in 0.5% Methocel 1 hr prior to pylorus ligation. Under light ether anesthesia, the rat stomach was ligated at the pylorus region. Four hrs after ligation the conscious rat was sacrificed by a chloroform overdose. The stomach was carefully excised and its content drained into a centrifuge tube. Samples were centrifuged to separate secretions from debris. Gastric fluid volume reading and determination of sample contamination, based on debris and sample color, was made. Titration was performed on a sample aliquot of 1 ml diluted to a volume of 5 ml using distilled water. The titrant used was 0.1N NaOH. Total gastric acid output in the stomach was determined by titration to ph 7. A dose of 300 mg/kg p.o. of a compound was administered to a group of rats and its effect on the volume of gastric secretion and acid output compared to a control group receiving 0.5% Methocel p.o. The activity of each compound based on the degree of inhibition of gastric acid output is set forth in Table I.

Regarding `CN1CCN(Cc2ccc(Cl)c(Cl)c2)C1=O` [I-B, 1-(3,4-Dichlorobenzyl)-3-methyl-2-imidazolidinone], the “% of Control Vol. of Gastric Secretion” value is on record as 39.2 % of Control and the “% of Control Gastric Acid Output” value was 8.9 % of Control.

Turning to `O=C1NCCN1Cc1ccc(Cl)c(C(F)(F)F)c1` [Example 11-C, 1-(4-Chloro-3-trifluoromethylbenzyl)-2-imidazolidinone], the “% of Control Vol. of Gastric Secretion” value is on record as 23.0 % of Control and the “% of Control Gastric Acid Output” value was 16.8 % of Control.
